Laboratory results taken from PMC10451668, “Natural Acetogenins, Chatenaytrienins-1, -2, -3 and -4, Mitochondrial Potential Uncouplers and Autophagy Inducers—Promising Anticancer Agents” (Antioxidants, 2023).

What was measured:
Jurkat cells [1] = experiment: Oxidative stress and early apoptosis (MitoSOX Red and annexin V, MitoStress Kit); format: cell-based, human
From the text: Changes in the mitochondrial membrane potential (ΔΨ) in Jurkat cells induced by treatment with the synthesized compounds were detected using MitoSOX Red, a positively charged probe that accumulates rapidly in mitochondria and as such can be used to detect superoxide/ROS production within mitochondria using fluorometry, microscopy, or flow cytometry. Live cells induced a low level of MitoSOX Red fluorescence, while cells with scattered mitochondrial membrane potential caused much higher MitoSOX Red fluorescence. Annexin V is a dye commonly used to detect early signs of apoptosis. […] Thus, using two different dyes, MitoSOX Red and annexin V (CF488A), in the FlowCellect™ MitoStress Kit (FCCH100109), we analyzed the mitochondrial membrane potential dissipation and associated apoptosis in Jurkat cells in response to the synthesized chatenaytrienins.
Therefore, simultaneous detection of mitochondrial superoxide generation (detected by MitoSOX Red membrane-penetrating dye) and expression of phosphatidylserine on the cell surface of apoptotic cells (assessed by binding of annexin V) in the same cell sample provides an accurate evaluation of the ability of the test compound to initiate oxidative stress in cell culture and induce apoptosis.

Jurkat cell lysates = experiment: Multiplex analysis of signaling, genotoxicity and early apoptosis proteins (MILLIPLEX MAP, Luminex); format: cell-based, human
Description: Multiplex analysis was performed according to a previously published method. MILLIPLEX®MAP technology is used to determine the total protein or phosphorylated protein levels of various biological analytes, such as kinases or signaling proteins, including CREB, ERK/MAP, p70 S6, p21, p38, PI3K/AKT/mTOR, JNK (A), p53, MDM2, Bcl-2/Bax, STAT3 and STAT5, Nf-kB, Caspase 3-8-9, JNK, ATM, Chk1, Chk2, and H2AX, in cell lysates using the Luminex® system ((MILLIPLEX Multi-Pathway Magnetic Bead 9-Plex—Cell Signaling Multiplex Assay kit, Merk, Germany). This MILLIPLEX®MAP technology provides an alternative to Western blotting and immunoprecipitation and has several important advantages, such as more accurate measurement of small amounts of protein and the elimination of analyte loss during sample preparation. The multiplex immunoassay (MILLIPLEX 48-680MAG; Merck Millipore, Germany) was performed in Millipore 96-well plates to detect changes in concentrations of phosphorylated and unphosphorylated proteins p53, MDM2, p21, p38, PI3K/AKT/mTOR, Bcl-2/Bax, STAT3 and STAT5, Nf-kB, Caspase 3 -8-9, CREB, ERK/MAP, p70 S6, JNK, ATM, Chk1, Chk2, and H2AX in Jurkat cell lysates.
The levels of phosphorylated and non-phosphorylated proteins were analyzed using MILLIPLEX® map technology to study the analytes in the same sample within a fairly short time. Various deviations in protein concentration due to external factors or detection errors that could affect the results of the experiment were thereby reduced to zero.
The expression of p53, MDM2, p21, p38, PI3K/AKT/mTOR, Bcl-2/Bax, STAT3 and STAT5, Nf-kB, Caspase 3-8-9, CREB, ERK/MAP, p70 S6, JNK, ATM, Chk1, Chk2, and H2AX proteins in lysate samples of Jurkat tumor cells were studied using Luminex technology with the MILLIPLEX® MAP 9-Plex Multi-Pathway 9-plex Magnetic Bead Kit. This bead-based assay involved color-coded fluorescent particles pre-coated with specific antibodies targeting 9 major kinases in signaling pathways.

T24 bladder cancer cells = tested on: T24 bladder cancer cells; design: method as in PMID 16154156; conditions: cited from earlier work
Jurkat cells [2] = experiment: Detection of mitodamage: mitochondrial membrane potential and apoptosis (MitoSense Red, annexin V, 7-AAD); format: cell-based, human; conditions: compound at CC50, 4 h; for cells in late apoptosis (stained with 7-AAD): Jurkat; for Jurkat tumor cells with the Δψ dissipation phenomenon: MitoSense Red
From the text: The use of reagents MitoSense Red, annexin V, and 7-AAD in the Millipore FlowCellect™ MitoDamage Kit allowed us to gain information on early, mid, and late apoptosis with one simple assay. […] After this time, the cells were dissociated using an accutase solution, stained, and analyzed using the NovoCyte Penteon Flow Cytometer System (Agilent, 5301 Stevens Creek Blvd., Santa Clara, CA, USA), according to the manufacturer’s protocols for the FlowCellect™ MitoDamage Kit and FlowCellect™ Oxidative Stress Characterization Kit (Merck).
Detection of mitochondrial potential dissipation using MitoSense Red, annexin V, and 7-AAD provided a simultaneous measurement of three important parameters of the cell state within the same cell sample: the state of the mitochondrial potential (Δψ), detected by the membrane-penetrating MitoSense Red dye; the expression of phosphatidylserine on the cell surface of apoptotic cells, assessed by the binding of annexin V to externalized phosphatidylserine; and the binding of 7-AAD to DNA in cells in the late stages of apoptosis. Multiparametric evaluation of these indicators of cell viability made it possible to determine the correlation and relationship between oxidation dissipation and phosphorylation with apoptosis.

Jurkat tumor cell line = experiment: Assessment of cytochrome c loss (FlowCellect Cytochrome c Kit); format: cell-based, human; conditions: compound at CC50, incubation 3 h, anti-cytochrome c-FITC
Description: Quantification of cytochrome c release from mitochondria in apoptotic cells was presented to detect the mitochondrial pathway of apoptosis in cells using flow cytometry with the FlowCellect™ Cytochrome c Kit (FCCH100110). For this, cells were treated with FITC-conjugated antibodies against cytochrome c and control anti-IgG1-FITC, together with the use of an optimized fixation procedure, permeabilization, and blocking buffer (Luminex®, USA). […] Jurkat cells were incubated for 4 h with the synthesized substances at a concentration corresponding to their 24-h CC50 in a culture plate and assessed using the NovoCyte Penteon Flow Cytometer System (Agilent, 5301 Stevens Creek Blvd., Santa Clara, CA, USA). The obtained data were processed using NovoExpress® software (ACEA).

K562 = experiment: Cytotoxicity assay (7-AAD viability, flow cytometry); format: cell-based, human; conditions: ± standard error of the mean, 95% CI in parenthesis
From the text: (§1) Cells, including Jurkat E6.1 (human leukemic T cell lymphoblasts, catalogue no. 88042803), K562 (human chronic myelogenous leukemia cells, catalogue no. 89121407), U937 (human histiocytic lymphoma cells, catalogue no. 85011440), HL60 (human promyelocytic leukemia cells, catalog no. 98070106), HEK293 (human embryonic kidney cells with adenovirus, catalog no. 85120602), and human lung fibroblasts Ce (catalogue no. 90011883), were purchased from the European Collection of Authenticated Cell Cultures (UK Health Security Agency) and cultured according to standard protocols using sterile techniques. […] Cells were maintained in RPMI 1640 (Jurkat, K562, U937, and HL60) and DME M (fibroblast and HEK293) (Gibco) supplemented with […] glutamine, 10% FBS (Sigma), and 100 units/mL penicillin-streptomycin (Sigma). All types of cells were grown under an atmosphere of 5% CO2 at 37 °C. The cells were subcultured at 2–3-day intervals. Cells were then seeded in 24-well plates at 5 × 10^4 cells per well and incubated overnight. Jurkat, K562, U937, HL60, HEK293, and fibroblast cells were subcultured at 2-day intervals with a seeding density of 1 × 10^5 cells per well in 24-well plates in RPMI with 10% FBS.
(§2) Viability (live/dead) assessment was performed by staining cells with 7-AAD (7-aminoactinomycin D; Biolegend). After treatment, cells were harvested, washed 1–2 times with phosphate-buffered saline (PBS), and centrifuged at 400× g for 5 min. Cell pellets were resuspended in 200 µL of flow cytometry staining buffer (PBS without Ca^2+ and Mg^2+, 2.5% FBS) and stained with […] of 7-AAD staining solution for 15 min at room temperature in the dark. Samples were assessed using the NovoCyte Penteon Flow Cytometer System (Agilent, 5301 Stevens Creek Blvd., Santa Clara, CA, USA). Detection of 7-AAD emission was collected through a 675/30 nm filter in the FL4 channel.

HL60 = experiment: as above; format: cell-based, human; conditions: ± standard error of the mean, 95% CI in parenthesis
From the text: as §1, §2

Hek293 = experiment: as above; format: cell-based, human; conditions: Hek293, conditionally normal line; ± standard error of the mean, 95% CI in parenthesis
From the text: as §1, §2

Jurkat = experiment: as above; format: cell-based, human; conditions: ± standard error of the mean, 95% CI in parenthesis
From the text: as §1, §2

U937 = experiment: as above; format: cell-based, human; conditions: ± standard error of the mean, 95% CI in parenthesis
From the text: as §1, §2

Jurkat cells [3] = experiment: Assessment of autophagy (anti-LC3/FITC, flow cytometry); format: cell-based, human; conditions: 0.5 CC50, 48 h
From the text: Autophagy is involved in various physiological processes and its changes are associated with the pathogenesis of diseases such as neurodegenerative diseases, cardiovascular complications, cancer, and infectious diseases, as well as with physiological processes such as innate and specific immunity, pathogen clearance, lymphocyte selection, antigen presentation, and production of immunoglobulins. Therefore, the determination of LC3 protein inside autophagosomes without the cytosolic form of LC3-I at the stage of selective cell permeability was measured using flow cytometry. Thus, using the FlowCellect™ LC3-GFP Reporter Autophagy Assay Kit (FCCH100170 and FCCH100181), flow cytometry allowed for a rapid assay that could be combined with other phenotypic and functional markers to characterize different cell populations.
Canonical autophagy is associated with the conversion of LC3 protein (an autophagosome marker) from the cytoplasmic form of LC3I to the lipid-bound form of LC3II, which is associated with the membranes of maturing autophagosomes. The autophagy process can be conveniently classified into several stages. First, induction and translocation of the cytoplasmic LC3 protein occur due to the influence of external stimuli (adverse environmental influences)—the process is initiated by external/internal stimuli (for example, nutrient depletion or hypoxia). Then, the formation of autophagosomes begins, which are double-membrane vesicles that include the LC3 protein. This protein regulates the fusion of autophagosomes and lysosomes. It exists in two fractions—cytoplasmic LC3-I and LC3-II, isolated in the autophagosomal membrane. The LC3-II protein fraction was specified in our work, as its detection is a reliable indicator of the processes of autophagy in the cell.

[4] = tested on: Fibroblasts (PCS-201-018); experiment: Cytotoxicity assay (7-AAD viability, flow cytometry); format: cell-based, human; conditions: normal fibroblasts; ± standard error of the mean, 95% CI in parenthesis

| Molecule | cells in late apoptosis (stained with 7-AAD) (Jurkat cells [2]) | cells with cytochrome c released into the cytoplasm (Negative gate) (Jurkat tumor cell line) | Jurkat tumor cells with the Δψ dissipation phenomenon (Jurkat cells [2]) | CC50 (K562) | CC50 (HL60) | CC50 (Hek293) | CC50 (Jurkat) | CC50 (U937) | cells with autophagy (gate M3-2) (Jurkat cells [3]) | CC50 [4] | other results |
| --- | --- | --- | --- | --- | --- | --- | --- | --- | --- | --- | --- |
| CCCCCC[C@H]1C(=O)O[C@H](C)[C@H](NC(=O)c2cccc(NC=O)c2O)C(=O)O[C@@H](C)[C@@H]1OC(=O)CC(C)C [antimycin, reference compound] |  |  |  |  |  |  |  |  |  |  | intact (live) cells in the sample (Jurkat cells [1]; antimycin 100 µM, 4 h): 12.65% |
| CCCCCCCCCCCC/C=C\CC/C=C\CCCCCCCCCCCCC1=C[C@H](C)OC1=O [muricadienin, reference compound] |  |  |  |  |  |  |  |  |  |  | expression of caspase-8 (Jurkat cell lysates; 6 h and 12 h): did not significantly affect; concentration of p53 (Jurkat cell lysates; after 12 h of incubation, versus control): significantly increased; levels of all types of kinase proteins (CREB, JNK, NFkB, p38, ERK1/2, Akt, p70S6K, STAT3, STAT5) (Jurkat cell lysates; compound at CC50, 4 h, MFI versus intact cells): most pronouncedly reduced; cleaved caspase-9 (Jurkat cell lysates; especially after 12 h, level exceeded control): promoted the accumulation; level of BAD protein (Jurkat cell lysates; first 6 h, within 12 h began to increase again, not reaching control): decreased |
| CCCCCC[C@H](O)CCC[C@H](O)[C@H]1CC[C@H]([C@H]2CC[C@H]([C@H](O)CCCCCCCCCCCCC3=C[C@H](C)OC3=O)O2)O1 [squamocin] |  |  |  |  |  |  |  |  |  |  | effect on cell cycle (T24 bladder cancer cells): blocked cells in the G1 phase |
| CN[C@@H]1C[C@H]2O[C@@](C)([C@@H]1OC)n1c3ccccc3c3c4c(c5c6ccccc6n2c5c31)C(=O)NC4 [staurosporine, reference compound] | 2.48% | 80.23% |  |  |  |  |  |  |  |  |  |
| chatenaytrienin-3 [compound 3] | 17.01% | 41.99% | 62.42% | 90 ± 10 nM | 140 ± 40 nM | 780 ± 40 nM | 150 ± 40 nM | 180 ± 20 nM | 91.50% | 830 ± 50 nM | intact (live) cells in the sample (Jurkat cells [1]; compound at CC50, 4 h): 9.9% |
| chatenaytrienin-4 [compound 4] | 1.88% | 42.10% | 53.51% | 130 ± 40 nM | 190 ± 20 nM | 530 ± 10 nM | 160 ± 10 nM | 130 ± 50 nM | 56.09% | 980 ± 40 nM | cells demonstrating oxidative stress along with the marker of early apoptosis, annexin (Jurkat cells [1]; compound at CC50, 4 h, MitoSOX Red and annexin V): 26.8% |
